pKi: −log10 of the molar value. Like-named read-outs stand apart in the source and are kept apart here.
Key:
CYP2C8 = target: T1, CYP2C8 (Homo sapiens, UniProt P10632); test: In vitro CYP inhibition study, human liver microsomes, CYP2C8; format: in vitro ADME; details: for % Inhibition: Taxol 6α-hydroxylase, 20.7 mM (2.818 mg/ml)
T1 construct: from tissue; host or cells: human liver microsomes
T1 sequence (P10632 1-490): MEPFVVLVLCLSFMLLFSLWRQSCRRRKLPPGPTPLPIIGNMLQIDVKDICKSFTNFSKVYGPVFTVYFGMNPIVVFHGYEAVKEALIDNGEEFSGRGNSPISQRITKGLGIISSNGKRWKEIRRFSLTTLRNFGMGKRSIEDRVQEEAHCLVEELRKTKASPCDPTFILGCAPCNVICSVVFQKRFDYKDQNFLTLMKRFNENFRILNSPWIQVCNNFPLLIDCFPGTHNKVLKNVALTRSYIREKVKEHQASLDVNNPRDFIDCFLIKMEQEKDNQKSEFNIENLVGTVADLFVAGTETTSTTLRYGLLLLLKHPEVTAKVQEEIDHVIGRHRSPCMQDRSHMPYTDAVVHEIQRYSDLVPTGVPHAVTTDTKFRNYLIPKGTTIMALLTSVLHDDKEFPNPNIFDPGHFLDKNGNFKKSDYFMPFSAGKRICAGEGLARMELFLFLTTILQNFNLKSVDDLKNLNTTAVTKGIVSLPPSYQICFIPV

CYP2D6 = CYP2D6 (Homo sapiens, UniProt P10635); details: for % Inhibition: Bufuralol 1′-hydroxylase, 20.7 mM (2.818 mg/ml)
CYP2D6, sequence (P10635 whole entry): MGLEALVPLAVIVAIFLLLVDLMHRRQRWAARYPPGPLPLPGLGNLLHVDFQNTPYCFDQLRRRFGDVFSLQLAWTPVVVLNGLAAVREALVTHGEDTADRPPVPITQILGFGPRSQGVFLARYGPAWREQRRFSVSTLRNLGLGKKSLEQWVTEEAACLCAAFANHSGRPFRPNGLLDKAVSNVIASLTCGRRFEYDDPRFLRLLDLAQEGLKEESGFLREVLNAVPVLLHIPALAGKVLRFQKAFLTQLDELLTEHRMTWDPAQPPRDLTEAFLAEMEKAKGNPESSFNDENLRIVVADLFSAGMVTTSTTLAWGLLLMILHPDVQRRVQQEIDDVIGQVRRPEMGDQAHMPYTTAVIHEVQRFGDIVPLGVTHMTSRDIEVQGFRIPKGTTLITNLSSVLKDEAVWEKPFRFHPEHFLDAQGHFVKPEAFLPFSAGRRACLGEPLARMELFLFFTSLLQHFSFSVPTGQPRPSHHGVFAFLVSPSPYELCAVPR

CYP2C9 [1] = target: T2, CYP2C9 (Homo sapiens, UniProt P11712); details: for % Inhibition: Diclofenac 4′-hydroxylase, 20.7 mM (2.818 mg/ml)
T2 sequence (P11712 whole entry): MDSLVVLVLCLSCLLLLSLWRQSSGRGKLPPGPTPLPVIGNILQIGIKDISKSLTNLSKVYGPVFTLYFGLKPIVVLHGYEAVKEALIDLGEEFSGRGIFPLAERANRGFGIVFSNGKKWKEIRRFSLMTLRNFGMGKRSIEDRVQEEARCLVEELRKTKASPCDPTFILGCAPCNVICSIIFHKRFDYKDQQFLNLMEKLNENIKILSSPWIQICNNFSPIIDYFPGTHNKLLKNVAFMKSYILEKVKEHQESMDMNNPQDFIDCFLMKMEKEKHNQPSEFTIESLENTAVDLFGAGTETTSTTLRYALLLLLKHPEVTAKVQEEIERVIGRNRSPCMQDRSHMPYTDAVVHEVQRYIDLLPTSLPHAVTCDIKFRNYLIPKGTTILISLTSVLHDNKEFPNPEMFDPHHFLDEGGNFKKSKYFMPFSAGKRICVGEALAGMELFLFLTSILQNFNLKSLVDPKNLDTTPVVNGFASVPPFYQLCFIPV

CYP2C9 [2] = target: T2, CYP2C9; test: In vitro CYP inhibition study, human liver microsomes, CYP2C9
CYP1A2 = target: T3, CYP1A2 (Homo sapiens, UniProt P05177); format: in vitro ADME; details: for % Inhibition: 7-ethoxyresorufin-O-deethylase, 20.7 mM (2.818 mg/ml)
T3 construct: from tissue; host or cells: human liver microsomes
T3 sequence (P05177 1-516): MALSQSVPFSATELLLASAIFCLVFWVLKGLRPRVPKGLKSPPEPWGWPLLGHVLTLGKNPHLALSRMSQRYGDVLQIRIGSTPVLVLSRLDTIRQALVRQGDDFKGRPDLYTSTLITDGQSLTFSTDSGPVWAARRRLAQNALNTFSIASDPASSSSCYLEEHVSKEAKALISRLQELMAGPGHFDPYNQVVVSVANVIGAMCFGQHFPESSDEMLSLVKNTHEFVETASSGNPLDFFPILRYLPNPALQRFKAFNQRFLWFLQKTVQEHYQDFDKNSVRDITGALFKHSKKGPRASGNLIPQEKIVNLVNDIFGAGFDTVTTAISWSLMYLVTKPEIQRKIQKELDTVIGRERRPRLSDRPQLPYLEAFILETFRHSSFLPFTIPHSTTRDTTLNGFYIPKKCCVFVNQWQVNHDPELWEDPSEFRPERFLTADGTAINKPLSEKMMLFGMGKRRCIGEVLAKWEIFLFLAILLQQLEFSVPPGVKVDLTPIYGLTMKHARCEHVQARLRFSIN

CYP2C19 = target: T4, CYP2C19 (Homo sapiens, UniProt P33261); format: in vitro ADME; details: for % Inhibition: S-Mephenytoin 4′-hydroxylase, 20.7 mM (2.818 mg/ml)
T4 construct: from tissue; host or cells: human liver microsomes
T4 sequence (P33261 whole entry): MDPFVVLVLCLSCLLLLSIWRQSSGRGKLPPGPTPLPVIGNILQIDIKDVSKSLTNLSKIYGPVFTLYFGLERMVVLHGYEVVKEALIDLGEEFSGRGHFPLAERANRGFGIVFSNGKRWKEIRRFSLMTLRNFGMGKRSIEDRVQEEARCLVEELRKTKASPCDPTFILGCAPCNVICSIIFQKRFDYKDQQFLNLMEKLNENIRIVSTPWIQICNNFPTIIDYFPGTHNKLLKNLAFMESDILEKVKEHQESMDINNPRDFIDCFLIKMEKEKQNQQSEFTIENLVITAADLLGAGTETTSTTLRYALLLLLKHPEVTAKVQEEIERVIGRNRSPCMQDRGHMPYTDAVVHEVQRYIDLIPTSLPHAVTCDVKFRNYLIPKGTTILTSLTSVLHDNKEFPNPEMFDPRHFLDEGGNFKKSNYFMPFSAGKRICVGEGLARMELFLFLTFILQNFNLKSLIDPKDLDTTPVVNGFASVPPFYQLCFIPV

CYP3A4/5 [3] = format: in vitro ADME, human; details: for % Inhibition: 20.7 mM (2.818 mg/ml)
CYP3A4/5 [4] = test: Induction of CYP3A4/5 in cultured human hepatocytes; details: for Relative potency (%): PAA 20.7 mM; for Fold induction: PAA 20.7 mM (concentration of maximum fold induction)
[5] = at a concentration higher than the observed plasma concentrations

phenylacetate [PAA]
% Inhibition (CYP2C8; pre-incubation time 0 min): 50%
% Inhibition (CYP2C8; pre-incubation time 30 min): 49%
inhibition of CYP2C8 (in words) (CYP2C8; at 20.7 mM): inhibited
% Inhibition (CYP2D6; pre-incubation time 0 min): 49%
% Inhibition (CYP2D6; pre-incubation time 30 min): 57%
inhibition of CYP2D6 (in words) (CYP2D6; at 20.7 mM): inhibited
% Inhibition (CYP2C9 [1]; pre-incubation time 0 min): 47%
% Inhibition (CYP2C9 [1]; pre-incubation time 30 min): 44%
inhibition of CYP2C9 (in words) (CYP2C9 [1]; at 20.7 mM): inhibited
effect on CYP2C9 (in words) (CYP2C9 [1]; [5]): inhibitory effect
[I]/Ki ratio, CYP2C9 (CYP2C9 [1]; based on mean peak PAA concentration in UCD patients): < 0.1
pKi (CYP2C9 [2]): 1.82
% Inhibition (CYP1A2; pre-incubation time 0 min): 58%
% Inhibition (CYP1A2; pre-incubation time 30 min): 47%
inhibition of CYP1A2 (in words) (CYP1A2; at 20.7 mM): inhibited
% Inhibition (CYP2C19; pre-incubation time 0 min): 37%
% Inhibition (CYP2C19; pre-incubation time 30 min): 37%
inhibition of CYP2C19 (in words) (CYP2C19; at 20.7 mM): inhibited
% Inhibition (CYP3A4/5 [3]; Midazolam 1′-hydroxylase, pre-incubation time 0 min): 63%
% Inhibition (CYP3A4/5 [3]; Midazolam 1′-hydroxylase, pre-incubation time 30 min): 65%
% Inhibition (CYP3A4/5 [3]; Testosterone 6β-hydroxylase, pre-incubation time 0 min): 60%
% Inhibition (CYP3A4/5 [3]; Testosterone 6β-hydroxylase, pre-incubation time 30 min): 63%
inhibition of CYP3A4/5 (in words) (CYP3A4/5 [3]; at 20.7 mM): inhibited
effect on CYP3A4 (in words) (CYP3A4/5 [3]; [5]): inhibitory effect
induction of CYP3A4/5 (CYP3A4/5 [4]; cultured human hepatocytes, PAA): < 1.8 fold
Relative potency (%) (CYP3A4/5 [4]; donor Hu0793): 13.1%
Fold induction (CYP3A4/5 [4]; donor Hu0793): 1.4 fold
Relative potency (%) (CYP3A4/5 [4]; donor Hu4156): 18.2%
Fold induction (CYP3A4/5 [4]; donor Hu4156): 1.7 fold
